Measured values taken from patent publication US9795570B2, “Modulation of macrophage phenotype by emodin” (University of South Carolina, priority 2016, dated 2017).

Legend:
[1] = tested on: H3K27m3 and H3K27ac; test: Histone modifications H3K27m3/H3K27ac (western blotting, ChIP assay); type: cell-based, mouse
Description: Following stimulation with IL4 or LPS+IFNγ with or without emodin for varying periods, macrophages were lysed with cell signaling lysis buffer (Millipore) for whole cell lysates. Cytoplasmic and nuclear extracts were prepared using the Epiquik Nuclear Extraction kit (Epigentek, Farmingdale, N.Y.). Total protein was separated on 4-20% Tris-glycine pre-cast gels (Pierce) and transferred onto Nitrocellulose membranes (Bio-Rad Life Science, Hercules, Calif.). The membranes were then probed with HRP conjugated secondary antibodies, and signals were detected using Pierce ECL Western Blotting Substrate (Pierce).
Macrophages were stimulated with IL4 or LPS+IFNγ for 24 h with or without emodin. They were then fixed in 1% formaldehyde. Excess formaldehyde was quenched with glycine and the cells were collected in PBS by scraping. The cells were lysed (0.5% IGEPAL, 4 mM HEPES) and the nuclei were resuspended in nuclear lysis buffer (1% SDS, 10 mM EDTA, and 50 mM Tris, pH 8.1). The DNA was sheared by sonication using a Diagnode Bioruptor Pico for 15 cycles of 30 s on/30 s off. Then 10 μg chromatin was diluted 1:10 (0.01% SDS, 1.1% Triton X-100, 1.2 mM EDTA, 16.7 mM Tris-HCl, pH 8.1, 167 mM NaCl) and 2% of the input was removed from each sample and saved for analysis. Anti-H3K27m3 or anti-H3K27ac (Abcam) was added to each sample along with 20 μl of protein A+G magnetic beads (Millipore) and the samples were incubated overnight at 4° C. The beads were washed with low salt, high salt, LiCl, and TE wash buffers sequentially and the DNA was eluted off the beads with Proteinase K at 62° C. for 2 h (elution buffer: 200 mM NaCl, 1% SDS and 50 mM Tris). The DNA was then analyzed by real time PCR.

[2] = tested on: 4T1 tumors; test: 4T1 breast tumor model in BALB/c mice; type: in vivo
Description: C57BL/6 and BALB/c mice (8-12 weeks, female) were purchased from Jackson Labs (Bar Harbor, Me.). They were housed at the University of South Carolina Animal Research Facility, and all procedures were approved by the Institutional Animal Care and Use Committee. EO771 or 4T1 cells (2×10^5) in 20 μL of PBS were injected into the 4th pair of mammary glands on C57BL/6 mice or BALB/C, respectively, on Day 0. Starting on Day 1, emodin (40 mg/kg) or vehicle (2% DMSO) was injected intraperitoneally in 1 ml PBS once daily. The tumor size was measured using a caliper every 2-4 days, and the tumor volume was calculated using a formula: V (mm^3)=L (major axis)×W^2 (minor axis)/2. Mice were sacrificed at various time points.
The tumor draining lymph nodes and tumors were collected, and cell populations were analyzed using flow cytometry. Briefly, cells were stained with anti-CD3 FITC, anti-CD4 APC or anti-CD8 APC, and anti-CD25 PE (Biolegend) in PBS containing 2% FBS for 30 min at 4° C. Samples were washed twice with staining buffer and analyzed by flow cytometry using a BD FACS flow cytometer and CXP software version 2.2 (BD Biosciences, San Jose, Calif.). Data were collected for 20,000 live events per sample.
At sacrifice, tumors were embedded in OCT. They were then cut into 8 μm thick frozen sections and placed on slides. For immunohistochemistry staining, the sections were fixed with 4% paraformaldehyde for 10 min, and then blocked with 0.01 M glycine containing 0.1% Triton x-100. Next, the sections were blocked with 5% BSA. They were then incubated in primary antibody overnight at 4° C.: anti-F4/80 (1:50, Biolegend), anti-pSTAT6 (1:50, Cell Signaling), or anti-C/EBPβ (1:50, Santa Cruz). The sections were washed with PBS and then incubated with secondary antibodies for 1 h at room temperature. The sections were then stained with DAPI (1 μg/mL) and coverslipped with DABCO. Slides were imaged using a Zeiss LSM 510 Confocal microscope (Zeiss, Peabody, Mass.). For quantitative analysis, the number of positive cells was manually counted in six random fields of view per section. CD31 staining was performed according to standard methodology. Slides were imaged on a Nikon ECLIPSE E600 microscope (Nikon, Melville, N.Y.) at 200× magnification (10 fields per section). The integrated optical density (IOD) of CD31 was quantified using Image-Pro Plus software.
Macrophages or T cells were isolated from 4T1 tumors from mice sacrificed at 6 weeks post implantation or from EO771 tumors 5 weeks post implantation, using EasySep™ Mouse PE Positive Selection Kit (Stem Cell Technologies, Vancouver, BC). For cell isolation, 1×10^7-1×10^8 cells were incubated with 20 μL PE conjugated anti-F4/80 (Biolegend) for macrophages or 20 μL PE conjugated anti-CD3 for T cells and 50 μL microbeads. The T cells and macrophages were lysed in Qiazol and used for RT-PCR analysis. For ChIP assays, 5-10×10^6 macrophages were fixed in 1% formaldehyde.
Macrophages were fixed in 1% formaldehyde. Excess formaldehyde was quenched with glycine, and the cells were collected in PBS by scraping. The cells were lysed (0.5% IGEPAL, 4 mM HEPES), and the nuclei were resuspended in nuclear lysis buffer (1% SDS, 10 mM EDTA, and 50 mM Tris, pH 8.1). The DNA was sheared by sonication using a Diagnode Bioruptor Pico (Diagenode, Denville, N.J.) for 25 cycles of 30 s on/30 s off. Then 8 μg chromatin was diluted 1:10 (0.01% SDS, 1.1% Triton X-100, 1.2 mM EDTA, 16.7 mM Tris-HCl, pH 8.1, 167 mM NaCl), and 2% of the input was removed from each sample and saved for analysis. Anti-H3K27m3 (Abcam) was added to each sample along with 20 μL of protein A+G magnetic beads (Millipore), and the samples were incubated overnight at 4° C. The beads were washed with low salt, high salt, LiCl, and TE wash buffers sequentially, and the DNA was eluted off the beads with Proteinase K at 62° C. for 2 h (elution buffer: 200 mM NaCl, 1% SDS and 50 mM Tris). The DNA was then analyzed by qPCR.

[3] = tested on: Breast tumor cells from MMTV-PyMT mice; test: Gene expression in ex vivo breast tumor cells (qPCR); type: cell-based, mouse
[4] = 40 mg/kg IP once daily from Day 1

Cc1cc(O)c2c(c1)C(=O)c1cc(O)cc(O)c1C2=O [emodin]
IL4-induced decrease of H3K27m3 in the promoter of IRF4, Arg1 and YM1 genes ([1]; ChIP assay): reversed | LPS/IFNγ-induced decrease of H3K27m3 in the promoter of iNOS, TNFα and IL6 genes ([1]; ChIP assay): attenuated | induced increase of H3K27ac in promoters (LPS/IFNγ: iNOS, TNFα, IL6; IL4: IRF4, YM1) ([1]; ChIP assay): suppressed | global expression of H3K27m3 or H3K27ac ([1]; western blotting, LPS/IFNγ or IL4, emodin 50 μM 24 h): no effect | primary tumor growth [2, 4]: significant inhibition | tumor weight at the endpoint [2, 4]: significant inhibition | fraction of macrophages positive for pSTAT6 and C/EBPβ ([2]; 26 days post implantation): significantly reduced | number of macrophages in tumors ([2]; 26 days post implantation, tumor size not different): significantly reduced | H3K27m3 levels on the IRF4 promoter in TAMs ([2]; ChIP-qPCR): significantly increased | expression of IRF4 in TAMs ([2]; experimental endpoint, RT-qPCR): significantly decreased | expression of JMJD3 in TAMs ([2]; experimental endpoint, RT-qPCR): significantly decreased | activated CD4+ and CD8+ T cells in draining lymph nodes ([2]; flow cytometry, CD25): increased | IFNγ expression in CD3+ T cells vs control mice ([2]; qPCR): two-fold increase | expression of CCL2, CSF1, CD90, N-cadherin, vimentin, FoxC2 and KLF4 [3]: significantly suppressed
